Measured values from US8865894B2, “Oxazolidin-2-one compounds and uses thereof” (Novartis AG, priority 2012, dated 2014).

Biological target: PI3Kgamma (Homo sapiens, UniProt P48736)
Assay: Biochemical PI3Kgamma (TR-FRET Adapta Universal Kinase Assay)
Settings: mean of n measurements, read-out: PIK3g/ IC50
Protocol: Test compounds were dissolved in DMSO (10 mM) and transferred into 1.4 mL flat bottom or V-shaped Matrix tubes carrying a unique 2D matrix chip by individual Novartis compound hubs. The numbers of these chips were distinctively linked to Novartis Pharma Numbers. The stock solutions were stored at −20° C. if not used immediately. For the test procedure the vials were defrosted and identified by a scanner whereby a working sheet was generated that guided the subsequent working steps.
Compounds were either manually diluted in DMSO for individual experiments (96 wells enabling 10 cpds at 8 (single points) concentrations) as described in or prepared as described below if tested for profiling in 384-wells. This format enabled the assay of maximally 40 individual test compounds at 8 concentrations (single points) including 4 reference compounds. The dilution protocol included the production of “pre-dilution plates”, “master plates” and “assay plates”.
96 polypropylene well plates were used as pre-dilution plates. A total of 4 pre-dilution plates were prepared including 10 test compounds each on the plate positions A1-A10, one standard compound at A11 and one DMSO control at A12. Programs have been written to run these pipetting steps on the HamiltonSTAR robots.
100 μL of individual compound dilutions including standard compound and controls of the 4 “pre-dilution plates” were transferred into a 384 “master plate” including the following concentrations 1,820, 564, 182, 54.6, 18.2, 5.46, 1.82 and 0.546 μM, respectively in 90% DMSO.
Identical “assay plates” were then prepared by pipetting 50 nL each of compound dilutions of the “master plates” into 384-well “assay plates”. The compounds were mixed with 4.5 μL of assays components plus 4.5 μL enzyme corresponding to a 1:181 dilution enabling the final concentration of 10, 3.0, 1.0, 0.3, 0.1, 0.03, 0.01 and 0.003 μM, respectively. The preparation of the “master plates” was handled by the Matrix PlateMate Plus robot and replication of “assay plates” by the HummingBird robot.
The TR-FRET Adapta™ Universal Kinase Assay Kit was purchased from Invitrogen Corporation (Carlsbad/CA, USA) (Cat. No. PV5099). The kit contains the following reagents: Adapta Eu-anti-ADP Antibody (Europium labeled anti-ADP antibody in HEPES buffered saline, Cat. No. PV5097), Alexa Fluor® 647-labeled ADP tracer (Alexa Fluor® 647-labeled ADP tracer in HEPES buffered saline, Cat. No. PV5098), proprietary TR-FRET dilution buffer pH 7.5 (Cat. No. PV3574).
PIK3CD substrate Phosphatidylinositol was obtained from Invitrogen (vesicules consisting of 2 mM PI in 50 mM HEPES pH7.5; Cat. No. PV5371). PIK3CG substrate Phosphatidylinositol-4,5-bisphosphate (PIP(4,5)2 was obtained from Invitrogen (PIP2:PS large unilamellar vesicules consisting of 1 mM PIP2: 19 mM PS in 50 mM HEPES pH7.5, 3 mM MgCl2, 1 mM EGTA; Cat. No. PV5100).
Time-Resolved Fluorescence Resonance Energy Transfer (TR-FRET) is a technology based on energy transfer between two adjacent dyes, from an excited electron in one dye (the donor) to an electron of an adjacent dye (the acceptor) through resonance, then released as a photon. This energy transfer is detected by an increase in the fluorescence emission of the acceptor, and a decrease in the fluorescence emission of the donor. TR-FRET assays for protein kinases use a long-lifetime lanthanide Terbium or Europium chelates as the donor species which overcome interference from compound autofluorescence or light scatter from precipitated compounds, by introducing a delay after excitation by a flashlamp excitation source. Results are often expressed as a ratio of the intensities of the acceptor and donor fluorophores. The ratiometric nature of such a value corrects for differences in assay volumes between wells, as well as corrects for quenching effects due to colored compounds. The Adapta™ assay can be divided into two phases: a kinase reaction phase and an ADP detection phase. […]

Sequence of PI3Kgamma (P48736 whole entry, species assumed): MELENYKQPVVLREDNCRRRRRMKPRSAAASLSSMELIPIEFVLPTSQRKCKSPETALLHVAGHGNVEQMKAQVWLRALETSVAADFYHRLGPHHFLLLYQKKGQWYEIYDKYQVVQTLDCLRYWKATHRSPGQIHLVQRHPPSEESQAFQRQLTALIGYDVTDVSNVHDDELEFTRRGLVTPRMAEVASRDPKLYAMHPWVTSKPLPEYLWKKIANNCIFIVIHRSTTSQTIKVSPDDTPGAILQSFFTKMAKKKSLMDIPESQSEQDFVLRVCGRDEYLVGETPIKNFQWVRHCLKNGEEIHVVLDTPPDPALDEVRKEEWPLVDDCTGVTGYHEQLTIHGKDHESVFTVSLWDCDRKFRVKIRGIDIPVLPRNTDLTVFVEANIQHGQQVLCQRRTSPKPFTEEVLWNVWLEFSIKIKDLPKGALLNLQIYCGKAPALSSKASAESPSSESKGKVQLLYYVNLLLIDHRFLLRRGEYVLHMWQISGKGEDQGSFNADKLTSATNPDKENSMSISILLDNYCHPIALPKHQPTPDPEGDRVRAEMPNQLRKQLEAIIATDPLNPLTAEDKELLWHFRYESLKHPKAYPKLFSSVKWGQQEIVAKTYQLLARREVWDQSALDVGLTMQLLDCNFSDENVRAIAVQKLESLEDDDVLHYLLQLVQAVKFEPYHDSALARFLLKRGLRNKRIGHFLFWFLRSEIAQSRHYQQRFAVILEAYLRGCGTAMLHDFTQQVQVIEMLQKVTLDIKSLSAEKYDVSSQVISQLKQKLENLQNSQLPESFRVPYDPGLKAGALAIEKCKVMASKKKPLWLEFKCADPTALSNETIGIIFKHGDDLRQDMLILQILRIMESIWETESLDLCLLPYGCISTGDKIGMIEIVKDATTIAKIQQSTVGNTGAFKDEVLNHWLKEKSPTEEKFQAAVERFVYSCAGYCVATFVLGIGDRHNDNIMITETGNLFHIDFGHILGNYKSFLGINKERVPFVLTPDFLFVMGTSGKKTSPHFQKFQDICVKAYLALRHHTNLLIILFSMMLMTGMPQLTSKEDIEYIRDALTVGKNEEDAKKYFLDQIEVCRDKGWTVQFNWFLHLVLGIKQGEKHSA

IC50: 158 nM
Compound: C[C@H]1OC(=O)N(c2cc(-c3cnc(N)nc3C(F)(F)F)nc(N3CCOC[C@@H]3C)n2)[C@H]1CO [Example 10, (4S,5R)-3-[2′-Amino-2-((S)-3-methyl-morpholin-4-yl)-4′-trifluoromethyl-[4,5′]bipyrimidinyl-6-yl]-4-hydroxymethyl-5-methyl-oxazolidin-2-one]
